Test results from patent US9872919B2, “Prodrugs for selective anticancer therapy” (THE RESEARCH FOUNDATION FOR THE STATE UNIVERSITY OF NEW YORK, priority 2012, dated 2018).
Where a SMILES comes first, the peptide text is derived from it. The star is where a group is joined. Cbz = O=C(OCc1ccccc1)*

Assays:
[1] = system: cathepsin L (CTSL); test: Live cell lysyl endopeptidase assay with Boc-Lys-AMC; assay type: cell-based; settings: Z-FY-CHO 100 μM, live cells, all cases tested
Procedure: FIG. 2. Comparative live cell lysyl endopeptidase activity of the same cell lines as in FIG. 1 using substrate Boc-Lys-AMC either with vehicle control DMSO or Z-FY-CHO (100 μM). Data represent mean values of triplicate measurements±s.d. RFU, relative fluorescent units.
Tissue culture based standard HDAC assays were performed by commercially available fluorimetric HDAC assay kit (SensoLyte, AnaSpec) according to the manufacturer's instruction with modification of using 25 μM Boc-Lys(Ac)-AMC (Bachem) as substrate and measuring parameter (Ex/Em=355 nm/460 nm) for AMC. Basically, HDAC substrate 25 μM Boc-Lys(Ac)-AMC [either with DMSO or 1 μM TSA (Sigma)] was applied to the overnight culture seeded from 6×10^4 cells in 100 μl medium in 96-well tissue culture plates, followed by 2 to 3 h incubation at 37° C. with 5% CO2 atmosphere. […] After 15 m incubation at room temperature, the fluorescent signal of AMC was measured by SpectraMax M5 microplate reader (Molecular Devices) at Ex/Em=355 nm/460 nm. Live cell lysyl endopeptidase assay was performed by applying the substrate 25 μM Boc-Lys-AMC (Bachem) [either with DMSO or 100 μM Z-FY-CHO (EMD)] to the overnight culture seeded from 6×10^4 cells in 100 μl medium in 96-well tissue culture plates, followed by 20 h incubation at 37° C. with 5% CO2 atmosphere, then the fluorescent signal of AMC was measured. […]

[2] = system: HDAC and cathepsin L in BxPC3 and CFPac-1 cells; test: Live cell enzymatic assay with Boc-Lys(Ac)-AMC in pancreatic cancer cells; assay type: cell-based, human; settings: for activation of substrate Boc-Lys(Ac)-AMC (AMC release): 6 hr, Z-FY-CHO 10 μM
Procedure: FIG. 5. A. HDAC assay using different substrates in BxPC3 cells (shGFP and shSki). Cells were incubated with Boc-Lys(Ac)-AMC or Ac-Arg-Gly-Lys(Ac)-AMC (25 μM) for 1 hr with DMSO (vehicle) or TSA (1 μM) as indicated, followed by cell lysis and trypsin treatment, and fluorescence measurements. Data represent mean values of triplicate measurements±standard deviation. RFU, relative fluorescent units. B. Similar experiment was done as in A but without cell lysis and trypsin treatment. Cells were incubated with the substrates for 2.5 hr.
FIG. 6. A. Release of AMC by combined HDAC and endogenous protease-dependent enzymatic reaction in BxPC3 and CFPac-1 cells (shGFP and shSki). Cells were incubated with substrate Boc-Lys(Ac)-AMC (25 μM) for 6 hr with DMSO (vehicle), TSA (1 μM), or Z-FY-CHO (10 μM) as indicated, followed by fluorescence measurements. Data represent mean values of triplicate measurements±standard deviation. RFU, relative fluorescent units. B. Time course of AMC release in BxPC3 cells (shGFP and shSki). Each cells were incubated with Boc-Lys(Ac)-AMC (25 μM) for 2.5, 6.0, and 23 hr with DMSO (vehicle) or TSA (1 μM) as indicated.
Tissue culture based standard HDAC assays were performed by commercially available fluorimetric HDAC assay kit (SensoLyte, AnaSpec) according to the manufacturer's instruction with modification of using 25 μM Boc-Lys(Ac)-AMC (Bachem) as substrate and measuring parameter (Ex/Em=355 nm/460 nm) for AMC. Basically, HDAC substrate 25 μM Boc-Lys(Ac)-AMC [either with DMSO or 1 μM TSA (Sigma)] was applied to the overnight culture seeded from 6×10^4 cells in 100 μl medium in 96-well tissue culture plates, followed by 2 to 3 h incubation at 37° C. with 5% CO2 atmosphere. Then the deacetylation reaction was terminated by addition of HDAC developer solution containing cell lysis buffer and trypsin reagents. After 15 m incubation at room temperature, the fluorescent signal of AMC was measured by SpectraMax M5 microplate reader (Molecular Devices) at Ex/Em=355 nm/460 nm. Live cell lysyl endopeptidase assay was performed by applying the substrate 25 μM Boc-Lys-AMC (Bachem) [either with DMSO or 100 μM Z-FY-CHO (EMD)] to the overnight culture seeded from 6×10^4 cells in 100 μl medium in 96-well tissue culture plates, followed by 20 h incubation at 37° C. with 5% CO2 atmosphere, then the fluorescent signal of AMC was measured. Live cell enzymatic assay using Boc-Lys(Ac)-AMC was performed by applying the substrate 25 μM Boc-Lys(Ac)-AMC (either with DMSO, 1 μM TSA or 100 μM Z-FY-CHO) to the overnight culture seeded from 6×10^4 cells in 100 μl medium in 96-well tissue culture plates, followed by 20 h incubation at 37° C. with 5% CO2 atmosphere, then the fluorescent signal of AMC was measured. Experiments were repeated at least three times.

[3] = system: BxPC3 shSki cells; test: MTT cell viability assay, BxPC3 shSki; assay type: cell-based, human; settings: for difference in IC50 values shSki versus shGFP: BxPC3 shSki over shGFP; for IC50: Homo sapiens, BXPC-3, MTT, 72 hr, Ski knockdown
Procedure: (§1) FIG. 24. Effect of the prodrug on cell viability of BxPC3 cells (shGFP and shSki). Cells were treated with the indicated dose of drugs (BKAc-5FCR or 5FCR) for 72 hr followed by MTT assay. Data represent mean values of triplicate measurements±standard deviation. IC50 values were derived from nonlinear curve fit of the dose response data using an outlier's exclusion, variable slope model (GraphPad Prism software). All values are means of at least two independent experiments.
(§2) The in vitro efficacy of the compounds in a series of BxPC3 and CFPac-1 derivatives with reduced Class I HDAC activity following Ski knockdown (shSki), HDAC3 knockdown and control (shGFP) was assessed. The growth inhibitory/viability effects of the compounds (IC50 value, the concentration resulting in 50% growth inhibition) on the various cell lines were determined by dose response curve analysis (GraphPad Prism software) of MTT [3-(4,5dimethylthiazol-2-yl)-2,5-diphenyl-tetrazolium bromide] cell viability assay. If the prodrugs are activated in an HDAC-dependent manner, the cells with reduced HDAC activity would be predicted to be more resistant to the prodrug treatment than control cells, while the effect of free parental drugs on both cells would be expected to be similar.

[4] = system: BxPC3 shGFP control cells; test: MTT cell viability assay, BxPC3 shGFP; assay type: cell-based; settings: Homo sapiens, BXPC-3, 72 hr
Procedure: as §1, §2

[5] = system: BXPC-3 cells; test: MTS cell viability assay with or without TSA; assay type: cell-based, human; settings: 20 μM, 72 hr, with TSA (50 μM as printed)
Procedure: FIG. 25. Selective cytotoxicity by BKAc-5FCR. Human pancreatic BXPC3 cells were treated with DMSO (vehicle), BKAc-5FCR (20 μM), or 5FCR (20 μM) for 72 hr with or without TSA (50 μM) followed by MTS cell viability assay. Representative phase contrast images of cells treated with DMSO (vehicle) or BKAc-5FCR (20 μM) for 72 hr with or without TSA (50 μM) are shown.

[6] = system: HCT116, HT29, CCD841-CoN and Caco-2 cells; test: Immunological detection of Puro-labeled proteins in cells; assay type: cell-based, human; settings: immunoblot; Boc-KAc-Puro 16.9 μM 20 h; Puro 2.1 μM 16 h
Procedure: (§3) FIG. 27. Levels of Puro-incorporated proteins in the cells were monitored by immunoblotting. Indicated cell lines were treated either with vehicle control DMSO or Boc-KAc-Puro (16.9 μM) in the presence or absence of TSA (0.5 μM) for 20 h, followed by preparation of cell lysates. The lower panel (anti-α-Tubulin) serves as a loading control.
as §3, with “28.” for “27.”, “Puro (2.1” for “Boc-KAc-Puro (16.9”, “16” for “20”, “lysates. […]” for “lysates.”
Cultured cells or tissue samples were sonicated in RIPA lysis buffer (1% NP-40, 0.1% SDS, 50 mM Tris-HCl pH 7.4, 150 mM NaCl, 0.5% sodium deoxycholate, 1 mM EDTA) supplemented with PMSF and protease inhibitor cocktail (Roche) on ice followed by clarification. Protein lysates were separated on sodium dodecyl sulfate-polyacrylamide gels and transferred onto nitrocellulose membranes (Whatman). The primary antibodies used were anti-puromycin (3RH11, KeraFAST) and anti-α-tubulin (Sigma-Aldrich). Proteins of interest were detected with anti-mouse secondary antibody by chemiluminescence (ECL Kit, GE Healthcare Life Sciences).

[7] = system: HCT116, HT29, CCD841-CoN and Caco-2 cells; test: Cell killing by parental Puro (MTS); assay type: cell-based, human
Procedure: FIG. 14. Inhibition of cell viability by parental Puro. The cell lines were treated with the indicated doses of Puro (0, 1.1, 2.1, 4.2, or 8.4 μM) for 3 d followed by MTS assay. Data represent mean values of triplicate mesurements±s.d.
Cell number was determined by cell counting using improved Neubauer hemacytometer. Cell viability was calculated as the number of viable cells divided by the total number of cells using Trypan Blue Stain (Invitrogen) to distinguish non-viable cells. Data were obtained from duplicated samples with quadruplicate measurements. MTS based cell viability assay was performed using CellTiter 96 Aqueous Cell Proliferation Assay (Promega) according to the manufacturer's instruction. Either 1 μl of DMSO alone or variable concentrations of BKAc-Puro or Puro in DMSO were added to the cell lines seeded at 5×10^4 cells per well in 96-well tissue culture plates in 100 μl of the growth medium, followed by 3-5 d incubation at 37° C. with 5% CO2 atmosphere. […] After additional 2-3 h incubation, the absorbance of the formazan at 490 nm was measured by the microplate reader. […] Determination of non-viable cells using PI staining was performed by adding 1 μg/ml of PI solution (Sigma) to the cell culture, prior to the examination under fluorescence microscopy (Axiovert 3, Carl Zeiss) through a×32 objective equipped with a digital imaging processor (Infinity 3, Lumenera).

Row | SMILES | activation of substrate Boc-Lys(Ac)-AMC (AMC release) ([2]; TSA 1 μM) | difference in IC50 values shSki versus shGFP [3] | IC50 [3] [nM] | IC50 [4] [nM] | other results
1 | O=C[C@H](Cc1ccc(O)cc1)NC(=O)[C@H](Cc1ccccc1)NC(=O)OCc1ccccc1 [Z-FY-CHO] (Cbz-Phe-Tyr-aldehyde) | completely abrogated the activation of the substrate | – | – | – | release of AMC from Boc-Lys-AMC [1]: significantly blocked
2 | Nc1nc(=O)n([C@@H]2O[C@H](CO)[C@@H](O)[C@H]2O)cc1F [5FCR, 5-fluorocytidine, reference compound] | – | no significant changes | 1200 | 1300 | –
3 | CC(=O)NCCCC[C@H](NC(=O)OC(C)(C)C)C(=O)Nc1ccc2c(C)cc(=O)oc2c1 [Boc-Lys(Ac)-AMC] | – | – | – | – | activation of substrate in live cells relative to total HDAC activity ([2]; BxPC3, 25 μM, 2.5 hr, without cell lysis and trypsin): approximately 50%
4 | CC(=O)NCCCCC(NC(=O)OC(C)(C)C)C(=O)Nc1nc(=O)n([C@@H]2O[C@H](CO)[C@@H](O)[C@H]2O)cc1F (stereo partly drawn) [BKAc-5FCR, t-butyl (6-acetamido-1-((1-((2R,3R,4S,5R)-3,4-dihydroxy-5-(hydroxymethyl)tetrahydrofuran-2-yl)-5-fluoro-2-oxo-1,2-dihydropyrimidin-4-yl)amino)-1-oxohexan-2-yl)carbamate] | – | two-fold | 5200 | 2600 | cytotoxic effect in the presence of HDAC inhibitor TSA [5]: substantially compromised
5 | COc1ccc(C[C@H](N)C(=O)N[C@H]2[C@@H](O)[C@H](n3cnc4c(N(C)C)ncnc43)O[C@@H]2CO)cc1 [Puro, puromycin, reference compound] | – | – | – | – | intensity of Puro incorporation, malignant vs normal and non-malignant cells [6]: no difference; cell killing [7]: kill all of these cells examined
6 | CC(/C=C/C(=O)NO)=C\[C@@H](C)C(=O)c1ccc(N(C)C)cc1 [TSA, Trichostatin A] | completely inhibited activation | – | – | – | AMC release, time course ([2]; BxPC3, 20 hr time course, TSA 1 μM): AMC release was inhibited
